{
  "source": "paper PMC11567856",
  "about": "“A novel peptide‐based tau aggregation inhibitor as a potential therapeutic for Alzheimer's disease and other tauopathies” (Alzheimer's & Dementia, 2024)",
  "key": {"[1]": {"target": "T1, Tau^Δ1‐250 (Homo sapiens, UniProt P10636)", "T1 construct": "Tau^Δ1‐250 (an aggregate prone truncated version of full‐length Tau); made in house; host or cells: E. coli BL21(DE3)", "T1 sequence (P10636 568-758, stated change not applied)": "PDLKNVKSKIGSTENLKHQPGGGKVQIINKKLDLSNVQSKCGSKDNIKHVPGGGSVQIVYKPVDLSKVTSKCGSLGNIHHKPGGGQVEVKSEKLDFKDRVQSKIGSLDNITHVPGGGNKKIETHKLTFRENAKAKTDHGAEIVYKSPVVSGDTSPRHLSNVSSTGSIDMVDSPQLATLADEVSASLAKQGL", "experiment": "Congo-red staining of Tau^Δ1‐250 fibrils", "format": "biochemical", "conditions": "Tau^Δ1‐250 incubated in the presence of RI‐AG03 (Figure S11)", "protocol": "Tau filament formation is expected to coincide with a reduction in disordered structure and an increase in β‐sheet content, even as the intermediary on‐pathway oligomers form.[67] […] However, the off‐pathway Tau aggregates that we have previously described have reduced β‐sheet content.[69] To study the β‐sheet content of the large amorphous aggregates formed in the presence of RI‐AG03, samples were analyzed using time‐resolved circular dichroism (CD) to investigate spectra changes indicative of secondary structure in the presence of RI‐AG03 over 5 h (Tau^Δ1‐250 aggregation plateaus at ∼5 h) (Figure 4E). The negative transition at 195 nm is characteristic of random coil structures being present within the Tau^Δ ^1‐250 (blue). […] Although challenging to deconvolute the increase in the negative ellipticity between ∼205 and 235 nm is consistent with the appearance of secondary structural elements including β‐strands. […] This reduction in β‐sheet content is corroborated by congo‐red staining, where the strong apple‐green birefringence observed for the Tau^Δ1‐250 fibrils was eliminated when the Tau^Δ1‐250 was incubated in the presence of RI‐AG03 (Figure S11)."}, "[2]": {"target": "T2, VQIVYK (Homo sapiens, UniProt P10636)", "T2 construct": "^306VQIVYK^311 hexapeptide (motif found in all six isoforms)", "experiment": "ThT fluorescence, aggregation of VQIVYK peptide", "format": "biochemical", "conditions": "ThT end-point 24 h; 20 µM VQIVYK, 20 µM RI‐AG03 (equimolar), 5 µM heparin, pH 7.4; alone or combined with VQIINK", "protocol": "Fluorescence was measured (λex = 442 nm, λem = 483 nm), and data were normalized. […] The addition of inhibitor to the growth phase was controlled by adding an equivalent volume of buffer alone.\nFIGURE 3 Lead peptide RI‐AG03 dose‐response and target specificity. […] (C) Concentration‐dependent inhibition of by Tau^Δ1‐250 by RI‐AG03. […] (E) Concentration‐dependent inhibition of by Tau^2N4R by RI‐AG03. […] (F) log10 scatter graph of Tau^2N4R inhibition by RI‐AG03 employing a curve fitting algorithm to calculate the IC50 at 5 µM. Experiments were conducted in triplicate and error bars were reported as standard deviation. One factor repeated measures ANOVA + Tukey post hoc statistical analysis: p > 0.05, *p ≤ 0.05, **p ≤ 0.01, ***p ≤ 0.001."}},
  "note": "Where a SMILES comes first, the peptide text is derived from it. [ ]: non-standard residue; d: D form.",
  "data": [
    {"smiles": "CC[C@@H](C)[C@@H](NC(=O)[C@@H](CCCCNC(C)=O)NC(=O)[C@@H](Cc1ccc(O)cc1)NC(=O)[C@@H](CCCCN)NC(=O)[C@H]1CCCN1C(=O)CNC(=O)[C@@H](CCCNC(=N)N)NC(=O)[C@@H](CCCNC(=N)N)NC(=O)[C@@H](CCCNC(=N)N)NC(=O)[C@@H](CCCNC(=N)N)NC(=O)[C@@H](CCCNC(=N)N)NC(=O)[C@@H](CCCNC(=N)N)NC(=O)[C@@H](CCCNC(=N)N)NC(=O)[C@@H](CCCNC(=N)N)NC(C)=O)C(=O)N[C@H](CCC(N)=O)C(=O)N[C@@H](C(=O)NCC(=O)N[C@H](CCCNC(=N)N)C(N)=O)C(C)C", "note": "[RI‐AG03] (Ac-[dR][dR][dR][dR][dR][dR][dR][dR]G[dP][dK][dY][dK](Ac)[dI][dQ][dV]G[dR]-NH2)", "values": [
      {"measurement": "apple‐green birefringence of Tau^Δ1‐250 fibrils (congo‐red)", "setting": "[1]", "result": "eliminated"},
      {"measurement": "effect on aggregation of VQIVYK peptide", "setting": "[2]", "result": "dramatically reduced"}
    ]}
  ]
}
